Experimental data from patent US20100003311A1, “Antimicrobial Composition” (priority 2006, published 2010).

Tests used:
human keratinocytes = assay: β-defensin production in culture medium containing human keratinocytes contacted with the compositions (FIG. 1); assay type: cell-based; conditions: compared with lipopolysaccharide
Description: The data was obtained by measuring β-defensin production in culture medium containing human keratinocytes when contacted with the various compositions.

[1] = tested on: epithelial surfaces (both mucosa and skin); assay: release of β-defensin 2 by epithelial surfaces
Description: The stimulation of β-defensin 2 by hyaluronic acid has been observed by the patent inventor. […] The application of hyaluronic acid to the skin is thought to increase the amount of innate immunity antibiotic peptides such as β-defensin 2 that are present and therefore provide an increased level of innate immunity. The stimulation of defensin and other innate immunity antibiotic peptide expression in sites of skin and mucosa injury may therefore facilitate tissue repair by providing innate immunity and decreasing the possible bacterial contamination and colonisation of tissues by opportunistic pathogens.

hyaluronic acid
stimulation of β-defensin production (human keratinocytes): stimulates β-defensin production by human keratinocytes significantly, and considerably more than lipopolysaccharide | release of β-defensin 2 [1]: able to determine the release of β-defensin 2 by epithelial surfaces
